Laboratory results published in patent publication US10138214B2, “Substituted triazoles and methods relating thereto” (Neurocrine Biosciences, Inc., priority 2015, dated 2018).

What was measured:
harmaline-induced tremor = assay: Harmaline-induced tremor assay; format: in vivo, ICR mice; details: mice, harmaline 30 mg/kg s.c.; oral doses noted; p<0.05; mpk=mg/kg
From the text: The harmaline-induced tremor assay is the primary preclinical model of induced tremor. Male ICR mice (10 weeks old) were used in this study. Mice were group housed in OPTI mouse ventilated cages. All animals remained group housed during the duration of the study. All mice were acclimated to the colony room for at least one week prior to testing. During the period of acclimation, mice were examined on a regular basis, handled, and weighed to assure adequate health and suitability. Mice were maintained on a 12/12 light/dark cycle. The room temperature was maintained between 20 and 23° C. with a relative humidity maintained between 30% and 70%. Chow and water were provided ad libitum for the duration of the study. In each test, animals were randomly assigned across treatment groups. Ten mice were tested in each group. […] After habituation, tremor activity of the mice was measured for approximately 8 min. The recorded frequencies (1-64 Hz) of activity and the number of tremor events were captured electronically. Data were analyzed by the tremor monitor software (San Diego Instruments) in a two part process. Using a Fast Fourier Transform (FFT), an output is provided showing the percentage of activity (energy) recorded at each frequency. […] Data were analyzed by analysis of variance (ANOVA) followed by Fisher PLSD post-hoc analysis. […]

[1] = system: hippocampal-kindled focal seizures; assay: Hippocampal-kindled rat test (focal seizures); format: in vivo, rats; details: i.p. injection
Experimental: Electrodes are implanted into the hippocampus of anesthetized rats, which are then allowed to recover for 1 week. Following the rapid kindling protocol (Lothman et al., Brain Res., 1994. 649:71-84), the rats are stimulated with […] for 10 s, 50 Hz, every 30 min for 6 h on alternate days until they are fully kindled (4-5 stimulus days). After 1 week of rest, the animals are given the same electrical stimulus, which served as a baseline. The animals are pretreated with the test compound (by i.p. injection) and then tested at various intervals. At each time point, the behavioral seizure score and after-discharge duration are recorded. The behavioral seizure scores are scored according to the following criteria (Racine, Electroencephalogr Clin Neurophysiol, 1972. 32(3):281-94): stage 1—mouth and facial clonus; stage 2—stage 1 plus head nodding; stage 3—stage 2 plus forelimb clonus; stage 4—stage 3 plus rearing, and stage 5—stage 4 plus repeated rearing and falling. The after-discharge threshold (ADT) can also be measured in the kindled rat. The ADT is defined as the lowest current at which an after-discharge of at least 4 s is elicited. […] The initial stimulation is conducted at an intensity of 20 μA with 10 μA increments every 1-2 min until an after-discharge was elicited. Fifteen minutes after the predrug threshold determination, a single dose of the test substance is administered to 2 animals in a volume of 0.04 ml/10 g body weight. In this way, the animals serve as their own control. The individual rat ADT is then determined at varying times (i.e., 0.25, 1, 2 and 4 h) after drug administration.

[2] = system: pilocarpine-induced convulsive status epilepticus; assay: Pilocarpine rat model (initial qualitative efficacy screen); format: in vivo, Sprague Dawley rats; details: i.p., administered after seizure onset, mpk=mg/kg
Experimental: Compounds are assessed for their ability to halt pilocarpine-induced convulsive status epilepticus (SE). To identify doses of drug to be used in the SE testing, acute motor impairment is assessed following the intraperitoneal (i.p.) administration of doses starting at 100 and 300 mg/kg. Individual Sprague Dawley rats are evaluated for acute toxicity over several time points following administration of test compounds. The results obtained from this initial study determine whether any dose adjustments are required. The behavior of the animals is observed closely and recorded over a four hour period. Routinely, a minimum number of four rats, two per dose are employed in this acute screen.
To determine if the test substance can halt acute pilocarpine-induced status an initial qualitative efficacy screen is performed. A challenge dose of pilocarpine (50 mg/kg) is administered i.p. and animals observed until the first convulsive (e.g., Stage 3, 4, or 5) seizure (time zero). The seizure severity is determined using the Racine scale. At this point a minimally toxic dose of the candidate drug is administered to a group of 8 male albino Sprague Dawley rats (150-180 g) via the i.p. route of administration. Efficacy is defined by the ability of an investigational drug to halt the further expression of pilocarpine induced convulsive seizures (e.g., Stage 3, 4, or 5). […] In this test, the investigational drug is administered 30 minutes after the first observed convulsive seizure. This is a more severe test of a candidate's ability to halt the induced status. […] A minimum of 4 doses with at least 8 rats per dose are utilized in the quantification study.

## O=C1CCCN1c1cn(Cc2c(F)cccc2F)nn1 [Compound 14a, 1-{1-[(2,6-difluorophenyl)methyl]-1H-1,2,3-triazol-4-yl}pyrrolidin-2-one]
harmaline-induced tremor
  Dose showing significant reductions in total tremors: 50 mpk

## O=C(Nc1cn(Cc2c(F)cccc2F)nn1)[C@@H]1COCCN1 [Compound 3c, (3S)—N-{1-[(2,6-difluorophenyl)methyl]-1H-1,2,3-triazol-4-yl}morpholine-3-carboxamide]
[1]
  active at (dose): active at 50 mpk

## CN(C)c1cn(Cc2c(F)cccc2F)nn1 [Compound 8a, [1-(2,6-difluoro-benzyl)-1H-[1,2,3]triazol-4-yl]-dimethyl-amine]
[1]
  ED50: ED50 25 mpk
[2]
  Dose at which activity was shown: 65 mpk

## O=C1OCCN1c1cn(Cc2c(F)cccc2F)nn1 [Compound 15a, 3-{1-[(2,6-difluorophenyl)methyl]-1H-1,2,3-triazol-4-yl}-1,3-oxazolidin-2-one]
harmaline-induced tremor
  Dose showing significant reductions in total tremors: 50 mpk

## Fc1cccc(F)c1Cn1cc(N2CCCC2)nn1 [Compound 10f, 1-[(2,6-difluorophenyl)methyl]-4-(pyrrolidin-1-yl)-1H-1,2,3-triazole]
[2]
  Dose at which activity was shown: 65 mpk

## N[C@@H](Cc1ccccc1)C(=O)Nc1cn(Cc2c(F)cccc2F)nn1 [Compound 3a, (2S)-2-amino-N-{1-[(2,6-difluorophenyl)methyl]-1H-1,2,3-triazol-4-yl}-3-phenylpropanamide]
[1]
  active at (dose): active at 200 mpk
[2]
  Dose at which activity was shown: 200 mpk

## O=C(Nc1cn(Cc2c(F)cccc2F)nn1)[C@H]1COCCN1 [Compound 3d, (3R)—N-{1-[(2,6-difluorophenyl)methyl]-1H-1,2,3-triazol-4-yl}morpholine-3-carboxamide]
[1]
  ED50: ED50 79 mpk
[2]
  Dose at which activity was shown: 450 mpk

## Fc1cccc(F)c1Cn1cc(N2CCOCC2)nn1 [Compound 10a, 4-{1-[(2,6-difluorophenyl)methyl]-1H-1,2,3-triazol-4-yl}morpholine]
[1]
  ED50: ED50 32 mpk
[2]
  Dose at which activity was shown: 65 mpk

## O=C1NCCN1c1cn(Cc2c(F)cccc2F)nn1 [Compound 16a, 1-{1-[(2,6-difluorophenyl)methyl]-1H-1,2,3-triazol-4-yl}imidazolidin-2-one]
[1]
  active at (dose): active at 100 mpk
